We go through nine molecules from patent publication US20090123447A1, “COMPOSITIONS AND METHODS TO INHIBIT RNA VIRAL REPRODUCTION” (priority 2007, published 2009).

Where two headings read alike, the source gives them in different places.

One data set has as its system genomic HCV RNA. Particulars: Huh7 cells transfected with genomic HCV RNA, H2O2 24 h.
Data set [1] relates to newly synthesized HCV RNA. The data set can be described thus: 3H labeling of newly synthesized HCV RNA in SgPC2 cells. It counts as cell-based, hepatitis C virus. Conditions: 6 h. Here is the method: One million SgPC2 cells were pretreated with 2 μM BAPTA-AM or DMSO alone for 1 h and then treated with 0 or 100 μM H2O2 in the presence of 100 μCi of [^3H]uridine (35-50 Ci/mmol; MP Biomedicals, Irvine, Calif., USA) and 4 μg/ml actinomycin D (Sigma-Aldrich) for 5 to 6 h and then lysed for the RNA isolation. RNA was analyzed on a 1% formaldehyde agarose gel, which was then treated with 1 M sodium salicylate for 20-30 min for fluorography. The RNA gel was also stained with ethidium bromide to visualize rRNA bands to serve as loading controls.

The subject of data set [2] is SgPC2 cells. Particulars: JC-1 and annexin V-FITC staining. The protocol: Mitochondrial membrane potential was measured with JC1, using a Guava cytometer (Guava Technologies, Inc.). Apoptosis was also monitored with annexin V-FITC, with a 96-Nexin kit from Guava Technologies, Inc.
Data set [3] relates to intracellular calcium concentration ([Ca^2+]i). The data set can be described thus: [Ca^2+]i measurement with Indo-1 AM in SgPC2 cells. It counts as cell-based, human. Particulars: for change in [Ca^2+]i: SgPC2 cells. The protocol: Briefly, on the day of the experiment, cells were washed in Krebs-Ringer phosphate buffer (KRPH; pH 7.4, containing 1.0 mM MgSO4, 1.3 mM CaCl2, 10 mM Hepes, 5 mM glucose, 125 mM NaCl, 5 mM KCl, and 10 mM sodium phosphate) and subsequently loaded with 10-20 μM Indo-1 AM (70 μl/coverslip; Molecular Probes, Inc., Eugene, Oreg., USA) containing 10 μM probenecid (Molecular Probes) for 30 min at 37° C. The attached cells were washed and bathed in KRPH/probenecid at 4° C. or room temperature until further analysis. Then, coverslips were individually submerged into KRPH and preequilibrated inside the […] fluorimeter (Hitachi) in darkness for 3 min, and [Ca^2+]i was monitored continuously at 37° C., with excitation at […] and emission at 400 and 450 nm. H2O2 and other agents were injected at different time points, as indicated under Results. [Ca^2+]i was calculated as described. Rmax was determined by adding 8-16 μM digitonin and Rmin with 10 mM ethylene glycol-bis(β-aminoethyl)-N,N,N'-tetraacetic acid (EGTA). […] The baseline, which represented unstimulated cells scanned over time, was plotted along with other measurements or subtracted from the other plots. Cells were serum-depleted, 1 day before the experiment, by incubating them overnight in DMEM plus 0.5% FBS. […] Then, CaCl2 was added before determining the Rmax for each run.

Another data set concerns JFH1 HCV (genotype 2a). It counts as cell-based, hepatitis C virus. The protocol: For viral RNA transfection, JFH1, JFH1/GND, and pSGR-JFH1-Luc were linearized with XbaI and used to synthesize the corresponding positive-sense stranded HCV RNA, as previously described (68). Then, 5×10^6 Huh7 cells were rinsed with Opti-Mem (Invitrogen), mixed briefly with 10-20 μg of the in vitro transcribed RNA in 0.4 ml of Opti-Mem, and then electroporated at 260 volts and 950 μF. […] Medium was changed daily. For infection with HCV, medium collected from JFH1 RNA-transfected cells were cleared of cell debris, as described, and added to naïve Huh7 cells. Typically, 1:2 or 3:2 ratio of the virus-containing medium and fresh cell culture medium were used.
JFH1/GND was used as the negative control. When L-buthionine S,R-sulfoximine (BSO) was used, the cells were pretreated with BSO for 16-24 hrs prior to the initiation of treatments.
Intracellular JFH1 HCV RNA content was also analyzed by qRT-PCR (Taqman), using ABI7300 real time PCR system and one step RT-PCR kit from Applied Biosystems. The forward primer was 5′-[…]-3′ (nt. 146 to 164) and the reverse primer, 5′-[…]-3′ (nt. 277 to 295). The probe was 5′[…]3′ (nt. 168 to 188) and was fluorogenically labeled with FAM (5′) and TAMRA (3′) (Biosearch Technologies, Novato, Calif.). Briefly, the reactions were carried out at 48° C. for 30 min for reverse transcription, followed by denaturation at 95° C. for 10 min, and then 50 cycles of 15 sec denaturation at 95° C. plus 60 sec of annealing and extension at 60° C. All samples were analyzed in duplicates or triplicates. In vitro RNA transcripts were used to generate standard curve to determine RNA copy numbers. The level of 18S rRNA was also analyzed, using manufacturer-optimized protocol, as the control.
To analyze the amount of the extracellular HCV RNA, medium from the cells were cleared by low-speed centrifugation and then, treated with RNaseA at room temperature. Then, the RNA samples were extracted, using Trizol LS Reagent (Invitrogen), and analyzed for HCV RNA content by qRT-PCR.

The test system of data set [4] is subgenomic HCV replicon of genotype 1b. The data set can be described thus: microbe, parasite or virus in culture. It counts as cell-based, hepatitis C virus. Here is the method:
Huh7 human hepatoma cells were cultured in Dulbecco's modified Eagle medium (DMEM; Invitrogen, Carlsbad, Calif., USA) supplemented with 10% fetal bovine serum (FBS; Invitrogen), 100 units/ml of penicillin, and 100 μg/ml of streptomycin in a 5% CO2 incubator. SgPC2 cells are G418-selected, pooled Huh7 cell clones that support the continuous replication of a subgenomic HCV replicon of genotype 1b and [29] (GenBank Accession No. AJ242652) that carries a S11791 adaptive mutation within the NS5A region. SgPC2 cells were maintained in the above medium supplemented with 0.5 mg/ml G418 (Invitrogen). G418 was removed at least 1 day before cell treatments.

The subject of data set [5] is SgPC2 cells. The protocol: Intracellular GSH concentration was determined using a GSH recycling assay and expressed as nmol/mg protein. ATP level was measured using the Somatic Cell ATP assay kit from Sigma-Aldrich, as previously described. Protein level was determined with a bicinchoninic acid kit (Pierce Biotechnology, Inc., Rockford, Ill., USA).
In data set [6] the test system is HCV replication complex (RC). Kind of data set: In vitro HCV replication assay with cytoplasmic lysates of SgPC2 cells. The data set is classed as cell-based, hepatitis C virus. Conditions: for effect on the suppression of in vitro HCV replication by H2O2: pretreatment of SgPC2 cells before H2O2. Here is the method: In vitro replication assay was carried out according to the protocol of Ali et al., with slight modifications. Briefly, SgPC2 cells were grown to approximately 50-60% confluence in 100-mm dishes. Then, […], and cytoplasmic lysates were prepared by gently lysing the cells in the incomplete replication buffer (prepared without dithiothreitol) immediately after treating the cells with lysolecithin-containing washing solution (150 mM sucrose, 30 mM Hepes, pH 7.4, 33 mM ammonium chloride, 7 mM KCl, 4.5 mM magnesium acetate, 250 μg/ml lysolecithin) for 1-2 min. Twenty to 50 μCi of [α-^32P]CTP (3000 Ci/mmol) and 1-2 μg of actinomycin D were added to 70 μl of these cytoplasmic lysates, and the replication reaction was allowed to proceed for 1 h at 30° C. Then, RNA was isolated by phenol:chloroform extraction and ethanol precipitation. The ^32P-labeled transcripts were then analyzed on a 1% formaldehyde agarose gel which was subsequently washed with H2O, dried, and analyzed with a phosphoimager.

A further data set concerns the target T1, full-length NS5B (Hepatitis C virus genotype 1b, UniProt P26663).
T1 construct: Full-length NS5B protein was purified from Escherichia coli; made in house; host or cells: Escherichia coli
The data set can be described thus: NS5B RdRp assay, de novo RNA synthesis in vitro. The data set is classed as biochemical. The source says: Full-length NS5B protein was purified from Escherichia coli, as previously described, and was used to catalyze de novo RNA synthesis in vitro [36].

T1 sequence (P26663 2420-3010): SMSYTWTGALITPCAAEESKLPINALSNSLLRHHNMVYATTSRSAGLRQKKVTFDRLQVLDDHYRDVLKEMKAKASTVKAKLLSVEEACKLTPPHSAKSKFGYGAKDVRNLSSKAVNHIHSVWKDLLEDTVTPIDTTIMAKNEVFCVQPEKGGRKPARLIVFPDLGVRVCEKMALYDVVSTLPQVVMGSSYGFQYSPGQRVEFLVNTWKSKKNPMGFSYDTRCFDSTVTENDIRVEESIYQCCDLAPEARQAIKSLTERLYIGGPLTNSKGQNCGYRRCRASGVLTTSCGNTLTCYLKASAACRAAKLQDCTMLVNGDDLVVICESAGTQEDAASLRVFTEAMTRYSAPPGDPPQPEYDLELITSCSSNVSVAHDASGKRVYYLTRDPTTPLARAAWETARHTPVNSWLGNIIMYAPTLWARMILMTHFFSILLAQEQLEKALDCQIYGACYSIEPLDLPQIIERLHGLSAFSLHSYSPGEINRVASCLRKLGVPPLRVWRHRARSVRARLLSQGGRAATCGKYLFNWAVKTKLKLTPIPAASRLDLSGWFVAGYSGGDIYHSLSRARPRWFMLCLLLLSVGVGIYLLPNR
Protocol for genomic HCV RNA: Then, 5×10^6 Huh7 cells were rinsed with DMEM, mixed briefly with 10-20 μg of the subgenomic replicon RNA in 0.4 ml of DMEM, and then electroporated at 220 V and 975 μF. Then, 1 million cells were seeded onto 60-mm cell culture dishes in DMEM containing 10% FBS. Medium was changed daily and, after 2-4 days, the cells were preincubated with 1,2-bis(2-aminophenoxy)ethane-N,N,N′,N′-tetraacetic acid tetrakis acetoxymethyl ester (BAPTA-AM) or vehicle control alone for 1 h. Then, the cells were exposed to H2O2 for 24 h, and the amount of the HCV RNA was analyzed by Northern blot (see below).
Total RNA was extracted from cells, using Trizol reagent (Invitrogen), following the manufacturer's protocol. Five to 20 μg of RNA was then subjected to Northern blot analysis using a ^32P-labeled double-stranded DNA probe prepared from nt 3669 to nt 6016 of the subgenomic replicon. For these and all other experiments, RNA and protein bands were quantified with a phosphoimager (Cyclone; Perkin-Elmer) or by densitometry using SigmaScan (Jandel Scientific) or IS2000R (Kodak). The intensities of the bands of interest were normalized against the control glyceraldehyde-3-phosphate dehydrogenase (GAPDH) mRNA.

In the case of `OO` [H2O2, Hydrogen peroxide], the “genomic HCV RNA, % of untreated control” value in the data set with genomic HCV RNA is recorded as 34.0±4.0%. The “amount of HCV RNA synthesized ([3H]uridine, actinomycin D)” value in [1] was “significantly decreased”. The “mitochondrial membrane potential or apoptosis” value with SgPC2 cells [2] was “no significant effect”. Also, the “AUC of [Ca^2+]i elevation” value was 128.4±82.3 Ca^2+/min in [3] (100 μM H2O2, with BAPTA (2 μM BAPTA-AM pretreatment)) and 935.9±58.9 Ca^2+/min in data set [3] (100 μM H2O2, without BAPTA). Also, the “TG-induced calcium elevation after H2O2 pretreatment, % of control” value in data set [3] (H2O2 pretreatment 13 min, no extracellular calcium) amounted to 9.2±2.6%. The “change in [Ca^2+]i” value in [3] is given as “gradual rise”. Further, the results for the “AUC of peroxide-induced calcium elevation” value in [3] (with 1.3 mM extracellular calcium) and in data set [3] (without extracellular calcium) were 1278.5±109.5 Ca^2+/min and 1105.1±238.1 Ca^2+/min, respectively. In the data set on JFH1 HCV (genotype 2a), the “intracellular and extracellular HCV RNA levels” value is “significantly decreased”. In addition, the “inositol 1,3-triphosphate (IP3) level” value in the data set on IP3 was “did not increase”. Further, in data set [4], the “HCV RNA (normalized to GAPDH mRNA), % of untreated control” value stood at 36.8±16.6%. In addition, in [4], the “effect on HCV RNA replication after 30 min of treatment” value is “significant suppression”. Also, the “suppression of HCV RNA level compared with IFN-γ” value in data set [4] is listed as “as effective as 100 to 2500 U/ml IFN-γ”. For the same molecule, in data set [4] (Hepatitis C virus, 24 h, read-out: IC50 of suppression of HCV RNA level), the IC50 is around 25 µM. In addition, the “total ATP content, % of untreated control” value worked out at 125.4±0.3% in the data set on SgPC2 cells [5] (30 min of treatment) and 97.3±8.25% in the data set with SgPC2 cells [5] (24 h of treatment).

As for `N.N.N.N.N.N.N.N.N.N.N.N.N.N.[Cl-].[Cl-].[Cl-].[Cl-].[Cl-].[Cl-].[O-2].[O-2].[Ru+3].[Ru+3].[Ru+4]` [ruthenium red, reference compound], the “basal calcium or magnitude/kinetics of the peroxide-induced calcium elevation” value in [3] is given as “no effect”.

For `C/C=C(/C)C(=O)O[C@H]1C(C)=C2[C@H]([C@@H]1OC(=O)CCCCCCC)[C@@](C)(OC(C)=O)C[C@H](OC(=O)CCC)[C@@]1(O)[C@H]2OC(=O)[C@@]1(C)O` [TG, thapsigargin, reference compound], the activity at 0.4 µM in data set [3] (Homo sapiens, 400 nM TG pretreatment 10 min, no extracellular calcium, read-out: peroxide-induced calcium elevation after TG pretreatment, % of control) stood at 58.3 ± 8.4%. In addition, the “change in [Ca^2+]i” value in [3] is reported as “transient rise”. Also, the “AUC of TG-induced calcium response in control cells” value in data set [3] (no extracellular calcium, no H2O2 pretreatment) is recorded as 772.3±189.3 Ca^2+/min.

Take `CC(=O)OCOC(=O)CN(CC(=O)OCOC(C)=O)c1ccccc1OCCOc1ccccc1N(CC(=O)OCOC(C)=O)CC(=O)OCOC(C)=O` [BAPTA-AM, 1,2-bis(2-aminophenoxy)ethane-N,N,N′-tetraacetic acid tetrakis acetoxymethyl ester]: the “effect on the suppression of HCV RNA replication by H2O2 ([3H]uridine)” value in [1] (2 μM BAPTA-AM pretreatment) was “completely removed the suppression”. For the same molecule, in [1], the “amount of HCV RNA synthesized ([3H]uridine, actinomycin D)” value is recorded as “no significant effect”. Moreover, in [6], the “effect on the suppression of in vitro HCV replication by H2O2” value is “removed this suppression at both time points tested”. The “effect on the suppression of HCV RNA by GO” value in data set [4] (SgPC2 cells, GO 24 h, 130-200 U/ml catalase or 2 μM BAPTA-AM) is on record as “alleviate the suppressive effect of GO”.

In the case of `[Ca+2].[Cl-].[Cl-]` [CaCl2], the “in vitro de novo RNA synthesis by NS5B” value at full-length NS5B (0.1 and 1 μM) is on record as “only marginally suppressed”. Also, the NS5B polymerase activity entry at full-length NS5B (higher concentrations) is reported as “enhanced the polymerase activity”. The “in vitro HCV RNA replication, agent added directly to the cytoplasmic lysates” value in [6] (added to untreated lysates before assay) is “could decrease”.

`c1ccc2c(c1)[I+]c1ccccc1-2` [DPI, Diphenylene Iodonium, reference compound]: the “effect on HCV RNA level / replication” value in [4] is given as “significantly elevated”.

Regarding `N[C@@H](CCC(=O)N[C@@H](CS)C(=O)NCC(=O)O)C(=O)O` [GSH, glutathione, reference compound], in the data set with JFH1 HCV (genotype 2a), the “restoration of HCV RNA levels suppressed by BSO” value is reported as “not able to restore HCV replication”.

Turning to `C[C@H](CCC(=O)O)C[C@H](C)C[C@H](C)C(=O)/C=C(\O)[C@H](C)C[C@H](C)C/C=C/[C@@H](C)[C@@H](O)[C@@H](C)[C@@H](O)C[C@@H]1CC[C@@](C)([C@H]2CC[C@@](C)([C@@H](C)O)O2)O1` [ionomycin], the “effect on the suppression of in vitro HCV replication by H2O2” value in data set [6] is reported as “significantly alleviated”.

Take cyclosporin A [reference compound]: in data set [3], the “basal calcium or magnitude/kinetics of the peroxide-induced calcium elevation” value is “no effect”.
